Results as given in BindingDB's records for doi:10.1016/S0960-894X(97)00311-9 (n/a, 1997).

Assay: Inhibition of human platelet aggregation

IC50 [nM] | SMILES
2000 | CC(C)[C@H](NC(=O)[C@H](CC(=O)O)NC(=O)CCNC(=O)C=Cc1ccc(N=C(N)N)cc1)C(=O)O [(S)-2-((S)-3-Carboxy-2-{3-[(E)-3-(4-guanidino-phenyl)-acryloylamino]-propionylamino}-propionylamino)-3-methyl-butyric acid]
500 | CC(C)[C@H](NC(=O)[C@H](CC(=O)O)NC(=O)CCN(C)C(=O)C=Cc1ccc(N=C(N)N)cc1)C(=O)O [(S)-2-[(S)-3-Carboxy-2-(3-{[(E)-3-(4-guanidino-phenyl)-acryloyl]-methyl-amino}-propionylamino)-propionylamino]-3-methyl-butyric acid]
25000 | CC(C)[C@H](NC(=O)[C@H](CC(=O)O)NC(=O)C[C@H]1CCCN1C(=O)C=Cc1ccc(N=C(N)N)cc1)C(=O)O [(S)-2-[(S)-3-Carboxy-2-(2-{(R)-1-[(E)-3-(4-guanidino-phenyl)-acryloyl]-pyrrolidin-2-yl}-acetylamino)-propionylamino]-3-methyl-butyric acid]
1600 | CC(C)[C@H](NC(=O)[C@H](CC(=O)O)NC(=O)C[C@@H]1CCCCN1C(=O)C=Cc1ccc(N=C(N)N)cc1)C(=O)O [(S)-2-[(S)-3-Carboxy-2-(2-{(S)-1-[(E)-3-(4-guanidino-phenyl)-acryloyl]-piperidin-2-yl}-acetylamino)-propionylamino]-3-methyl-butyric acid]
3300 | CC(C)[C@H](NC(=O)[C@H](CC(=O)O)NC(=O)[C@H]1CCN(C(=O)C=Cc2ccc(N=C(N)N)cc2)C1)C(=O)O [(S)-2-[(S)-3-Carboxy-2-({(S)-1-[(E)-3-(4-guanidino-phenyl)-acryloyl]-pyrrolidine-3-carbonyl}-amino)-propionylamino]-3-methyl-butyric acid]
96 | CC(C)[C@H](NC(=O)[C@H](CC(=O)O)NC(=O)C[C@@H]1CCCN1C(=O)C=Cc1ccc(N=C(N)N)cc1)C(=O)O [(S)-2-[(S)-3-Carboxy-2-(2-{(S)-1-[(E)-3-(4-guanidino-phenyl)-acryloyl]-pyrrolidin-2-yl}-acetylamino)-propionylamino]-3-methyl-butyric acid]
65 | CC(C)[C@H](NC(=O)[C@H](CC(=O)O)NC(=O)[C@@H]1CCN(C(=O)C=Cc2ccc(N=C(N)N)cc2)C1)C(=O)O [(S)-2-[(S)-3-Carboxy-2-({(R)-1-[(E)-3-(4-guanidino-phenyl)-acryloyl]-pyrrolidine-3-carbonyl}-amino)-propionylamino]-3-methyl-butyric acid]
410 | CCN(CCC(=O)N[C@@H](CC(=O)O)C(=O)N[C@H](C(=O)O)C(C)C)C(=O)C=Cc1ccc(N=C(N)N)cc1 [(S)-2-[(S)-3-Carboxy-2-(3-{ethyl-[(E)-3-(4-guanidino-phenyl)-acryloyl]-amino}-propionylamino)-propionylamino]-3-methyl-butyric acid]
620 | CC(C)[C@H](NC(=O)[C@H](CC(=O)O)NC(=O)[C@H]1CCCN(C(=O)C=Cc2ccc(N=C(N)N)cc2)C1)C(=O)O [(S)-2-[(S)-3-Carboxy-2-({(S)-1-[(E)-3-(4-guanidino-phenyl)-acryloyl]-piperidine-3-carbonyl}-amino)-propionylamino]-3-methyl-butyric acid]
180 | CC(C)[C@H](NC(=O)[C@H](CC(=O)O)NC(=O)[C@@H]1CCCN(C(=O)C=Cc2ccc(N=C(N)N)cc2)C1)C(=O)O [(S)-2-[(S)-3-Carboxy-2-({(R)-1-[(E)-3-(4-guanidino-phenyl)-acryloyl]-piperidine-3-carbonyl}-amino)-propionylamino]-3-methyl-butyric acid]
6600 | CC(C)[C@H](NC(=O)[C@H](CC(=O)O)NC(=O)CNC(=O)C=Cc1ccc(N=C(N)N)cc1)C(=O)O [(S)-2-((S)-3-Carboxy-2-{2-[(E)-3-(4-guanidino-phenyl)-acryloylamino]-acetylamino}-propionylamino)-3-methyl-butyric acid]
